The values that follow are results of earlier work, collected in patent US20230381101A1, “AQUEOUS PHARMACEUTICAL COMPOSITIONS COMPRISING SGLT-2 INHIBITORS” (Boehringer Ingelheim Vetmedica GmbH, priority 2022, published 2023).

Each structure is given as a SMILES string.

The conditions of this series: n-octanol/water; values taken from http://www.chemicalize.org/.
As for `OCC(O)CO` [propane-1,2,3-triol], the log10P was −1.84.

As to `CCO` [ethanol], the log10P was −0.16.

`CC(=O)N(C)C` [N,N-dimethylacetamide]: the log10P is given as −0.583.
